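Values below derive from 48-hour exposures of cells grown in 96-well plates, with endpoints linearly interpolated between the two concentrations bracketing the appropriate inhibition level. Abbreviation: GI50, concentration required for 50% inhibition of growth. TGI is the concentration that stops growth completely.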
Legend:
Assay in all cases: NCI anticancer screen, dose series, 48 h
[1] = system: OVCAR-4 ovarian
[2] = system: MCF7 breast
[3] = system: SK-MEL-5 melanoma
[4] = system: K-562 leukemia
[5] = system: NCI-H23 lung
[6] = system: MOLT-4 leukemia
[7] = system: LOX IMVI melanoma
[8] = system: SW-620 colon
[9] = system: HS 578T breast
[10] = system: RXF 393 renal
[11] = system: SF-268 CNS
[12] = system: RPMI-8226 leukemia
[13] = system: HCT-15 colon
[14] = system: SK-OV-3 ovarian
[15] = system: ACHN renal
[16] = system: MDA-MB-231 breast
[17] = system: OVCAR-5 ovarian
[18] = system: SF-295 CNS
[19] = system: PC-3 prostate
[20] = system: BT-549 breast
[21] = system: UACC-257 melanoma
[22] = system: EKVX NSCLC
[23] = system: UACC-62 melanoma
[24] = system: HCT-116 colon
[25] = system: HT29 colon
[26] = system: IGROV1 ovarian
[27] = system: SNB-19 CNS
[28] = system: HOP-62 NSCLC
[29] = system: SNB-75 CNS
[30] = system: HL-60(TB) leukemia
[31] = system: HOP-92 NSCLC
[32] = system: CCRF-CEM leukemia
[33] = system: UO-31 renal
[34] = system: HCC-2998 colon
[35] = system: DU-145 prostate
[36] = system: NCI/ADR-RES ovarian
[37] = system: TK-10 renal
[38] = system: SF-539 CNS
[39] = system: SR leukemia
[40] = system: SK-MEL-28 melanoma
[41] = system: CAKI-1 renal
[42] = system: NCI-H226 lung
[43] = system: NCI-H460 lung
[44] = system: SN12C renal
[45] = system: KM12 colon
[46] = system: A498 renal
[47] = system: T-47D breast
[48] = system: A549 NSCLC
[49] = system: OVCAR-8 ovarian
[50] = system: NCI-H522 lung
[51] = system: 786-0 renal
[52] = system: U251 CNS

In the case of `COc1ccc(Cn2cc3c(c2-c2cc(OC)c(OC)c(OC)c2)CCCc2cnoc2-3)cc1`, the GI50 [1] is reported as 4970 nM, the TGI [1] is reported as > 100000 nM and the GI50 [2] is reported as 437 nM. The TGI [2] was > 100000 nM, the GI50 [3] was 2000 nM and the TGI [3] was > 100000 nM. The GI50 [4] was 422 nM, the TGI [4] was > 100000 nM and the GI50 [5] was 2620 nM. The TGI [5] was > 100000 nM, the GI50 [6] was 802 nM and the TGI [6] was > 100000 nM. For the same compound, the GI50 [7] was 997 nM, the TGI [7] was > 100000 nM and the GI50 [8] was 474 nM. The TGI [8] was > 100000 nM, the GI50 [9] was 1540 nM and the TGI [9] was > 100000 nM. It also gave a GI50 [10] of 658 nM, a TGI [10] of 5040 nM and a GI50 [11] of 4720 nM. For the same compound, the TGI [11] was > 100000 nM, the GI50 [12] was 1560 nM and the TGI [12] was > 100000 nM. For the same compound, the GI50 [13] was 478 nM, the TGI [13] was > 100000 nM and the GI50 [14] was 4180 nM. The TGI [14] was > 100000 nM, the GI50 [15] was 900 nM and the TGI [15] was > 100000 nM. For the same compound, the GI50 [16] was 2540 nM, the TGI [16] was > 100000 nM and the GI50 [17] was 3720 nM. For the same compound, the TGI [17] was > 100000 nM, the GI50 [18] was 511 nM and the TGI [18] was > 100000 nM. For the same compound, the GI50 [19] was 849 nM, the TGI [19] was > 100000 nM and the GI50 [20] was 482 nM. For the same compound, the TGI [20] was > 100000 nM, the GI50 [21] was > 100000 nM and the TGI [21] was > 100000 nM. For the same compound, the GI50 [22] was 3000 nM, the TGI [22] was > 100000 nM and the GI50 [23] was 906 nM. For the same compound, the TGI [23] was > 100000 nM, the GI50 [24] was 391 nM and the TGI [24] was > 100000 nM. For the same compound, the GI50 [25] was 1130 nM, the TGI [25] was > 100000 nM and the GI50 [26] was 562 nM. The TGI [26] was > 100000 nM, the GI50 [27] was 1530 nM and the TGI [27] was > 100000 nM. For the same compound, the GI50 [28] was 2220 nM, the TGI [28] was > 100000 nM and the GI50 [29] was 869 nM. For the same compound, the TGI [29] was 4750 nM, the GI50 [30] was 350 nM and the TGI [30] was > 100000 nM. The GI50 [31] was 1270 nM, the TGI [31] was > 100000 nM and the GI50 [32] was 415 nM. The TGI [32] was > 100000 nM, the GI50 [33] was 924 nM and the TGI [33] was > 100000 nM. For the same compound, the GI50 [34] was 1610 nM, the TGI [34] was 10600 nM and the GI50 [35] was 4110 nM. For the same compound, the TGI [35] was > 100000 nM, the GI50 [36] was 544 nM and the TGI [36] was > 100000 nM. For the same compound, the GI50 [37] was > 100000 nM, the TGI [37] was > 100000 nM and the GI50 [38] was 700 nM. The TGI [38] was 5170 nM, the GI50 [39] was 359 nM and the TGI [39] was > 100000 nM. For the same compound, the GI50 [40] was > 100000 nM, the TGI [40] was > 100000 nM and the GI50 [41] was 490 nM. The TGI [41] was > 100000 nM, the GI50 [42] was 1990 nM and the TGI [42] was > 100000 nM. The GI50 [43] was 500 nM, the TGI [43] was > 100000 nM and the GI50 [44] was 4600 nM. For the same compound, the TGI [44] was > 100000 nM, the GI50 [45] was 692 nM and the TGI [45] was > 100000 nM. It also gave a GI50 [46] of 696 nM, a TGI [46] of 7110 nM and a GI50 [47] of 1850 nM. The TGI [47] was > 100000 nM, the GI50 [48] was 2340 nM and the TGI [48] was > 100000 nM. The GI50 [49] was 4300 nM, the TGI [49] was > 100000 nM and the GI50 [50] was 975 nM. For the same compound, the TGI [50] was 6900 nM, the GI50 [51] was 669 nM and the TGI [51] was > 100000 nM. The GI50 [52] was 4470 nM and the TGI [52] was > 100000 nM.
